The results in this text go back to ChEMBL document CHEMBL1145817, “Conformationally constrained analogues of diacylglycerol. 19. Synthesis and protein kinase C binding affinity of diacylglycerol lactones bearing an N-hydroxylamide side chain” (J Med Chem, 2003).

pKi: −log10 of the molar value.

In this assay the target is Protein kinase C alpha type (Homo sapiens, UniProt P17252). Nature of the assay: Binding affinity for Protein kinase C alpha C1a or C1b domain.

With `CC(C)CC(C/C=C1\CC(CO)(CN(O)C(=O)C(C)(C)C)OC1=O)CC(C)C` (configuration not stated), the pKi – broadly, the Ki on a negative log10 scale, so that one unit is a factor of ten – was 5.17.
For `CC(C)CC(C/C=C1/CC(CO)(CN(O)C(=O)C(C)(C)C)OC1=O)CC(C)C` (configuration not stated), the pKi is 5.16.
